What was measured:
[1] = test system: Stenotrophomonas maltophilia KCTC 1773T; assay: antibacterial test, paper disc diffusion method; assay type: cell-based; conditions: for Antibacterial zone of inhibition (mm) S. maltophila: paper disc (diameter 8 mm) wetted with 60 μL of 1 mg/mL sample in DMSO on agar plate, test repeated three times
Description: (§1) An antibacterial test was carried out using the above-mentioned paper disc diffusion method. Betulonic acid amide was dissolved in DMSO to make a sample having a concentration of 1 mg/mL. A filter paper (diameter: 8 mm, manufactured by Advantec, Toyo Roshi Kaisha, Japan) wetted with 60 μL of the sample was attached to an agar plate, and then a circumference, around which bacteria were not cultivated, was measured. DMSO was used as a negative control, and gentamicin was used as a positive control. The antibacterial test was repeatedly carried out three times.

[2] = test system: Stenotrophomonas nitritireducens KACC 10891T; assay: antibacterial test, paper disc diffusion method; assay type: cell-based; conditions: paper disc (diameter 8 mm) wetted with 60 μL of 1 mg/mL sample in DMSO on agar plate; test repeated three times
Description: as §1

[3] = test system: Ochrobactrum anthropi KCTC 22833T; assay: antibacterial test, paper disc diffusion method; assay type: cell-based; conditions: paper disc (diameter 8 mm) wetted with 60 μL of 1 mg/mL sample in DMSO on agar plate, test repeated three times
Description: as §1

[4] = test system: Ochrobactrum intermedium KACC 11952T; assay: antibacterial test, paper disc diffusion method; assay type: cell-based; conditions: paper disc (diameter 8 mm) wetted with 60 μL of 1 mg/mL sample in DMSO on agar plate, test repeated three times
Description: as §1

four kinds of bacteria = assay: antibacterial test, paper disc diffusion method, all strains; assay type: cell-based; conditions: from Table 3, 1 mg/mL sample
Description: An antibacterial test was carried out using the above-mentioned paper disc diffusion method. Betulonic acid amide was dissolved in DMSO to make a sample having a concentration of 1 mg/mL. A filter paper (diameter: 8 mm, manufactured by Advantec, Toyo Roshi Kaisha, Japan) wetted with 60 μL of the sample was attached to an agar plate, and then a circumference, around which bacteria were not cultivated, was measured. DMSO was used as a negative control, and gentamicin was used as a positive control. The antibacterial test was repeatedly carried out three times. Ochrobactrum anthropi KCTC 22833T and Stenotrophomonas maltophilia KCTC 1773T used in the antibacterial test were purchased from Korean Collection for Type Culture (KCTC), and Ochrobactrum intermedium KACC 11952T and Stenotrophomonas nitritireducens KACC 10891T used in the antibacterial test were purchased from Korean Agricultural Culture Collection (KACC). The diameters of clear circular zones of samples 2 to 7 of FIG. 1 were measured by a paper disc diffusion method, and compared to that of gentamicin. […] Particularly, it can be ascertained that the activity of sample 2 (4-(3′,4′-dichlorophenylpiperazin-1-yl) amide betulonic acid) and the activity of sample 7 (4-(4′-trifluoromethylphenylpiperazin-1-yl) amide betulonic acid) are highest.

Compound	Antibacterial zone of inhibition (mm) S. maltophila [1] [mm]	Antibacterial zone of inhibition (mm) S. nitritireducens [2] [mm]	Antibacterial zone of inhibition (mm) O. anthropi [3] [mm]	Antibacterial zone of inhibition (mm) O. intermedium [4] [mm]	further results
4-(4′-trifluoromethylphenylpiperazine-1-yl) amide betulonic acid [Compound 6 of FIG. 1]	14	16	15	14	–
C=C(C)[C@@H]1CC[C@]2(C(=O)N3CCN(c4ccc(F)cc4)CC3)CC[C@]3(C)C(CC[C@@H]4[C@@]5(C)CCC(=O)C(C)(C)C5CC[C@]43C)[C@@H]12 (stereo partly drawn) [Compound 1 of FIG. 1, 4-(4′-fluorophenylpiperazine-1-yl) amide betulonic acid]	–	11	–	–	melting point: 151 to 152 °C; growth inhibition effect (four kinds of bacteria): growth inhibition effect only to Stenotrophomonas nitritireducens
C=C(C)[C@@H]1CC[C@]2(C(=O)N3CCN(c4ccc(Cl)c(Cl)c4)CC3)CC[C@]3(C)C(CC[C@@H]4[C@@]5(C)CCC(=O)C(C)(C)C5CC[C@]43C)[C@@H]12 (stereo partly drawn) [Compound 2 of FIG. 1, 4-(3′,4′-dichlorophenylpiperazine-1-yl) amide betulonic acid]	–	15	–	–	melting point: 182 to 183 °C; zone of inhibition at 1000 µg/mL ([1]; Stenotrophomonas maltophilia, KCTC1773T, read-out: Antibacterial zone of inhibition (mm) S. maltophila): 13 mm; zone of inhibition at 1000 µg/mL ([3]; Brucella anthropi, KCTC22833T, read-out: Antibacterial zone of inhibition (mm) O. anthropi): 15 mm; zone of inhibition at 1000 µg/mL ([4]; Brucella intermedia, KACC11952T, read-out: Antibacterial zone of inhibition (mm) O. intermedium): 14 mm; activity (ranking among the samples) (four kinds of bacteria): highest
C=C(C)[C@@H]1CC[C@]2(C(=O)N3CCN(c4ccccn4)CC3)CC[C@]3(C)[C@H](CC[C@@H]4[C@@]5(C)CCC(=O)C(C)(C)[C@@H]5CC[C@]43C)[C@@H]12 [Compound 4 of FIG. 1, 4-(2-pyridylpiperazine-1-yl) amide betulonic acid]	10	–	–	10	–
C=C(C)C1CCC2(C(=O)N3CCN(c4ncccn4)CC3)CCC3(C)C(CCC4C5(C)CCC(=O)C(C)(C)C5CCC43C)C12 (stereo not drawn) [Compound 5 of FIG. 1, 4-(2-pyrimidylpiperazine-1-yl) amide betulonic acid]	10	11	13	10	–
C=C(C)[C@@H]1CC[C@]2(C(=O)N3CCN(c4ccc(C(F)(F)F)cc4)CC3)CC[C@]3(C)C(CC[C@@H]4[C@@]5(C)CCC(=O)C(C)(C)C5CC[C@]43C)[C@@H]12 (stereo partly drawn) [Compound 6 of FIG. 1, 4-(4′-trifluoromethylphenylpiperazine-1-yl) amide betulonic acid]	–	–	–	–	activity (ranking among the samples) (four kinds of bacteria): highest
gentamicin [reference compound]	16	21	19	17	–

— patent US8865935B2, “Purification methods for betulonic acid and Boc-lysinated betulonic acid, and organic synthesis of betulonic acid amides with piperazine derivatives” (priority 2011, dated 2014)
